{"source": "patent US7070965B1", "about": "“Small molecule anticancer compounds and related production process” (priority 1998, dated 2006)", "key": {"normal human PBLs": {"test_system": "normal human PBLs", "experiment": "In situ cell death detection, POD", "format": "cell-based", "conditions": "60 μg/ml, 8 hours", "from_the_text": "(§1) In Situ Cell Death Detection Kit, POD (Mannheim Boehringer GmbH) was used to detect the individual apoptotic cells. Cleavage of genomic DNA during apoptosis may yield double-stranded, low molecular weight DNA fragments as well as single strand breaks in high molecular weight DNA. Those DNA strand breaks can be identified by labeling free 3′-OH termini with modified nucleotides in an enzymatic reaction. In this kit terminal deoxynucleotidyl transferase (TdT) is used to label free 3′-OH ends in genomic DNA with fluorescein-dUTP. The incorporated fluorescein is visualized under fluorescence microscope directly. The incorporated fluorescein can also bind to anti-fluorescein antibody POD and be detected by substrate reaction. Stained cells can be analyzed under light microscope.\n(§2) Four human tumor cell lines, K-562 human leukemia, SNU-1 human gastric carcinoma cell lines, MCF-7 human breast adenocarcinoma and H1688 human small cell lung carcinoma cell lines, as well as Human PBLs were treated with iso-C15 (60 μg/ml).\n(§3) H1688, K-562 and DU145 human cancer cells and normal human PBLs were added with POD and incubated 30 min at 37° C., washed three times with PBS, then reacted with substrate AEC and incubated for 10 min at room temperature. The cells were analyzed under light microscope. […] It is evidenced that iso-C15 induces apoptosis of cancer cells but not normal human cells."}, "[1]": {"test_system": "DU-145 human prostate carcinoma cell lines", "experiment": "Apoptosis morphology, H&E, light microscope", "format": "cell-based", "conditions": "60 μg/ml, 8 hours", "protocol": "Human cancer cell lines DU-145 (prostate cancer), K562 (leukemia), HCT116 (colon cancer), H1688 (lung cancer), SUN423 (hepatocarcinoma), MCF7 (breast cancer), CRL-1687 (pancreatic cancer), and SUN-1 (gastric cancer) were obtained from American Type Culture Collection (ATCC). 30 ml blood was collected from a health person and normal peripheral mononuclear cells were separated by Ficoll separation solution (Sigma). All cells were maintained in RPMI 1640, DMEM, or McCoy medium supplemented with 10% FCS, […] streptomycin and 100 u/ml penicillin. Normal human peripheral mononuclear cells, K562 and SUN-1 were suspended cells. After spinning at 1,500 RPM for 5 min, supernatants were discharged and cells were resuspended and expended in fresh medium. The other tumor cell lines were adherent cells and were dispersed with 0.05% trypsin/0.01% EDTA (Irvine Scientific, CA) for expansion. Cells were seeded in T75 flasks at 2×10^6 cells/flask in culture medium supplemented with 10% fetal bovine serum and incubated overnight at 37° C. with 5% CO2. The adherent cells attached to the plate were striped with disposable cell scrapers (Fisher Scientific) after treated either with 1% iso-C15, anteiso-C15 or control solution for 1, 2, 4, 8 and 24 hours and then combined with respective float cells. […]"}, "[2]": {"test_system": "UVB radiation-induced skin tumor", "experiment": "Chemoprevention of UVB-induced skin cancer", "format": "in vivo, SKH-1 hairless mice", "conditions": "topical 200 μl of 10% iso-C15, 30 weeks, vs vehicle-treated group", "protocol": "13-methyltetradecanoic acid (iso-C15) was prepared by dissolving in NaOH solution and then in 0.8% Tween 80 with pH 7.5, with resulting concentration 10%.\nForty female SKH-1 hairless mice were divided into control and test groups, with 20 in each. The mice in both groups were treated topically once with 5.12 μg of DMBA dissolved in 200 μl acetone per mouse to achieve tumor initiation. One week later (day 8), animals in the test group were applied topically with 200 μl iso-C15 per application per mouse per day. The control group received 200 μl Tween 80 per application per mouse per day. Thirty minutes later, the animals in both groups were exposed to UVB (290–320 nm) radiation at a dose of 180 mJ/cm^2 per day to achieve UVB radiation-induced tumor promotion. The iso-C15 or vehicle treatments followed by UVB irradiation were performed twice a week up to 30 weeks from the start of UVB exposure. The animals were evaluated for tumor incidence at the end of 30 weeks."}, "[3]": {"test_system": "human hepatocellular carcinoma LCI-D35", "experiment": "Orthotopic nude mice model of human hepatocellular carcinoma LCI-D35", "format": "in vivo, athymic BALB/c nude mice", "protocol": "13-methyltetradecanoic acid (iso-C15) was chemically synthesized in the inventor's laboratory, as described in Example 5, infra, (purity of 99.8%), was prepared by dissolving in NaOH solution and then in 0.35% Tween 80 with pH7.5.\nTotal of 16 male and female athymic BALB/c nude mice between 4 and 5 weeks of age were bred and maintained in specific pathogen free condition.\nHuman hepatocellular carcinoma LCI-D35 was originally obtained from the primary tumor of a patient. The tumor was implanted and maintained subcutaneously in athymic nude mice. Prior to orthotopic implantation, the tumor was harvested in log phase. The peripheral tumor tissue was collected and minced to small pieces of one cubic millimeter each.\nThe mice were anesthetized for surgical orthotopic implantation. A small incision was made along the midline of the upper abdomen. The left lobe of the liver was exposed and a small incision was made on the liver surface. Two of the tumor fragments above were sutured into the incision using 8-0 suture. The abdomen was then closed using a 6-0 surgical suture.\nThe mice bearing orthotopic LCI-D35 were randomly divided into control and test groups of eight mice each at the second day after tumor implantation. The iso-C15 prepared above at dose 70 mg/kg and PBS were administered by gavage once a day in the test and control group, respectively, for 40 days.\nAll the mice were sacrificed by CO2 inhalation at day-40 after the start of treatment. The weights of primary tumors and bodies were measured. Tissue samples of the primary tumors were processed through standard procedures of hematoxylin and eosin staining for microscopic examination.\nThe tumor inhibition rates (TIR) were determined by comparing the mean tumor weight of the test groups (T) with that of the control group (C) and expressed as a (C)−T)/C percentage, and were analyzed by Student's test for statistical significance."}, "K-562 leukemia cells": {"test_system": "K-562 leukemia cells", "experiment": "In situ cell death detection, POD", "format": "cell-based, human", "conditions": "60 μg/ml, 2 and 4 hours", "from_the_text": "as §1, §2, §3"}, "H1688 cancer cells": {"test_system": "H1688 cancer cells", "experiment": "In situ cell death detection, POD", "format": "cell-based, human", "conditions": "60 μg/ml, 8 hours", "from_the_text": "as §1, §2, §3"}}, "data": [{"smiles": "CC(C)CCCCCCCCCCCC(=O)O", "note": "[iso-C15, 13-methyltetradecanoic acid]", "values": [{"measurement": "apoptotic cells stained, POD", "setting": "normal human PBLs", "result": "few stained apoptotic cells were seen"}, {"measurement": "morphological changes indicative of apoptosis", "setting": "[1]", "result": "membrane blebs were noted"}, {"measurement": "reduction in tumor incidence", "setting": "[2]", "result": 40, "unit": "%"}, {"measurement": "reduction of tumor volume", "setting": "[2]", "result": 90, "unit": "%"}, {"measurement": "signs of toxicity (body weight curve, histology slides)", "setting": "[3]; 70 mg/kg oral", "result": "no signs of toxicity"}, {"measurement": "TIR (tumor inhibition rate)", "setting": "[3]; 70 mg/kg oral, 40 days", "result": 64.9, "unit": "%"}, {"measurement": "tumor weight mean ± SD", "setting": "[3]; 70 mg/kg oral, 40 days", "result": "0.071 ± 0.052", "unit": "g"}, {"measurement": "mice in which the implanted tumor did not grow", "setting": "[3]; 70 mg/kg, eight mice per group", "result": "two"}, {"measurement": "apoptotic cells stained, POD", "setting": "K-562 leukemia cells", "result": "some cells started apoptosis (stained red) 2 hours after treatment"}, {"measurement": "apoptotic cells stained, POD", "setting": "H1688 cancer cells", "result": "apoptotic H1688 cancer cells (stained red) were found"}]}]}
